# System: HO-1
# Test: HO-1/GAPDH mRNA in cortex after IV FeS + SnPP (biomarker for oxidative stress)
# Type: in vivo
# Conditions: combined with iron sucrose
# Experimental: The SnPP composition of Example 1 and the Comparative Example (1 micromole) were combined with iron sucrose (1 mg) to assess biomarkers for oxidative stress.
structure (smiles),measurement,value
"C=CC1=C(C)C2=Cc3c(C=C)c(C)c4[n]3[Sn]([Cl])([Cl])[n]3c(c(C)c(CCC(=O)O)c3=CC3=NC(=C4)C(C)=C3CCC(=O)O)=CC1=N2 [Example 1, Stannic protoporfin]","HO-1 induction relative to the comparative example, in words",lower HO-1 induction
